Experimental data as given in the NIST ThermoML archive (doi:10.1021/acs.jced.5b00367).
Several values for one entry are separate records, joined by “and”; a condition that tells them apart may be missing. Equal values may be shown once.

Test: wn = mass fraction of the nth substance listed
Conditions: 101 kPa, Liquid, Alternating current cell with electrodes, w1 = 0.01

CCCCCCCCCCCC[N+](CC)(CC)CCCCCCCCCCCC.[Br-] [didodecyldiethylammonium bromide] + O
Conditions | electrical conductivity
315.45 K | 0.0223 S/m
315.55 K | 0.0224 S/m
315.65 K | 0.0224 S/m
315.75 K | 0.0226 S/m
315.85 K | 0.0227 S/m
315.95 K | 0.0228 S/m
316.05 K | 0.0228 S/m
316.15 K | 0.023 S/m
316.25 K | 0.023 S/m
316.35 K | 0.0231 S/m
316.45 K | 0.0233 S/m
316.55 K | 0.0234 S/m
316.65 K | 0.0236 S/m
316.85 K | 0.0238 S/m
317.05 K | 0.0239 S/m
317.15 K | 0.0242 S/m
317.25 K | 0.0242 S/m
317.35 K | 0.0244 S/m
317.45 K | 0.0245 S/m
317.55 K | 0.0246 S/m
317.65 K | 0.0247 S/m
317.75 K | 0.0249 S/m
317.85 K | 0.0249 S/m
317.95 K | 0.0252 S/m
318.05 K | 0.0253 S/m
318.15 K | 0.0253 S/m
318.25 K | 0.0255 S/m
318.35 K | 0.0257 S/m
318.45 K | 0.0259 S/m
318.55 K | 0.0259 S/m
318.65 K | 0.026 S/m
318.75 K | 0.0262 S/m
318.85 K | 0.0263 S/m
318.95 K | 0.0264 S/m
319.05 K | 0.0265 S/m
319.15 K | 0.0266 S/m
319.25 K | 0.0268 S/m
319.35 K | 0.027 S/m
319.45 K | 0.0271 S/m
319.55 K | 0.0272 S/m
319.65 K | 0.0273 S/m
319.75 K | 0.0275 S/m
319.85 K | 0.0276 S/m
319.95 K | 0.0277 S/m
320.05 K | 0.0278 S/m
320.15 K | 0.028 S/m
320.25 K | 0.0282 S/m
320.35 K | 0.0283 S/m
320.45 K | 0.0283 S/m
320.55 K | 0.0286 S/m
320.65 K | 0.0288 S/m
320.75 K | 0.0289 S/m
320.85 K | 0.029 S/m
320.95 K | 0.0292 S/m
321.05 K | 0.0293 S/m
321.15 K | 0.0294 S/m
321.25 K | 0.0296 S/m
321.35 K | 0.0298 S/m
321.45 K | 0.03 S/m
321.55 K | 0.0301 S/m
321.65 K | 0.0303 S/m
321.75 K | 0.0304 S/m
321.85 K | 0.0306 S/m
321.95 K | 0.0308 S/m
322.15 K | 0.031 S/m
322.25 K | 0.0312 S/m
322.35 K | 0.0314 S/m
322.45 K | 0.0315 S/m
322.55 K | 0.0316 S/m
322.65 K | 0.0317 S/m
322.75 K | 0.0318 S/m
322.85 K | 0.0319 S/m
323.35 K | 0.0323 S/m
323.55 K | 0.0324 S/m
323.75 K | 0.0326 S/m
324.05 K | 0.033 S/m
324.25 K | 0.0332 S/m
324.55 K | 0.0334 S/m
324.75 K | 0.0338 S/m
325.05 K | 0.0339 S/m
325.35 K | 0.0344 S/m
325.55 K | 0.0348 S/m
325.85 K | 0.0352 S/m
326.35 K | 0.036 S/m
326.75 K | 0.0368 S/m
327.35 K | 0.0372 S/m
327.95 K | 0.0384 S/m
328.55 K | 0.0392 S/m
328.85 K | 0.0402 S/m
329.55 K | 0.0411 S/m
330.25 K | 0.0426 S/m
331.05 K | 0.0442 S/m
331.85 K | 0.0461 S/m
332.25 K | 0.0461 S/m
332.95 K | 0.0482 S/m
333.35 K | 0.049 S/m
333.55 K | 0.0491 S/m
333.75 K | 0.0491 S/m
333.85 K | 0.0493 S/m
333.95 K | 0.0496 S/m
334.05 K | 0.0501 S/m
334.15 K | 0.0501 S/m
334.25 K | 0.0504 S/m
334.35 K | 0.0505 S/m
334.45 K | 0.0507 S/m
334.55 K | 0.0507 S/m
334.65 K | 0.0509 S/m
334.75 K | 0.0512 S/m
334.85 K | 0.0514 S/m
334.95 K | 0.0514 S/m
335.05 K | 0.0514 S/m
335.15 K | 0.0515 S/m
335.25 K | 0.0519 S/m
335.35 K | 0.052 S/m
335.45 K | 0.0521 S/m
335.65 K | 0.0524 S/m
335.75 K | 0.0526 S/m
335.95 K | 0.0528 S/m
336.05 K | 0.0531 S/m
336.15 K | 0.0531 S/m
336.25 K | 0.0532 S/m
336.35 K | 0.0536 S/m
336.45 K | 0.0537 S/m
336.55 K | 0.0539 S/m
336.65 K | 0.0542 S/m
336.75 K | 0.0544 S/m
336.85 K | 0.0545 S/m
336.95 K | 0.0546 S/m
337.05 K | 0.0548 S/m
337.15 K | 0.0549 S/m
337.25 K | 0.0551 S/m
337.35 K | 0.0552 S/m
337.45 K | 0.0553 S/m
337.55 K | 0.0556 S/m
337.65 K | 0.0556 S/m
337.75 K | 0.0558 S/m
337.85 K | 0.0559 S/m
337.95 K | 0.0563 S/m
338.05 K | 0.0564 S/m
338.15 K | 0.0566 S/m
338.25 K | 0.0568 S/m
338.35 K | 0.0569 S/m
338.45 K | 0.0571 S/m
338.55 K | 0.0573 S/m
338.65 K | 0.0575 S/m
338.75 K | 0.0577 S/m
338.85 K | 0.0578 S/m
338.95 K | 0.058 S/m
339.05 K | 0.0583 S/m
339.15 K | 0.0582 S/m
339.25 K | 0.0585 S/m
339.35 K | 0.0587 S/m
339.45 K | 0.0588 S/m
339.55 K | 0.0591 S/m
339.65 K | 0.0592 S/m
339.75 K | 0.0593 S/m
339.85 K | 0.0596 S/m
339.95 K | 0.0598 S/m
340.05 K | 0.06 S/m
340.15 K | 0.0602 S/m
340.25 K | 0.0605 S/m
340.35 K | 0.0606 S/m
340.45 K | 0.0608 S/m
340.55 K | 0.061 S/m
340.65 K | 0.0612 S/m
340.75 K | 0.0614 S/m
340.85 K | 0.0614 S/m
340.95 K | 0.0616 S/m
341.05 K | 0.062 S/m
341.15 K | 0.062 S/m
341.25 K | 0.0622 S/m
341.35 K | 0.0624 S/m
341.45 K | 0.0625 S/m
341.55 K | 0.0627 S/m
341.65 K | 0.0629 S/m
341.75 K | 0.063 S/m
341.85 K | 0.0633 S/m
341.95 K | 0.0633 S/m
342.05 K | 0.0637 S/m
342.15 K | 0.0639 S/m
342.25 K | 0.064 S/m
342.35 K | 0.0642 S/m
342.45 K | 0.0643 S/m
342.55 K | 0.0645 S/m
342.65 K | 0.0649 S/m
342.75 K | 0.0651 S/m
342.85 K | 0.0654 S/m
342.95 K | 0.0656 S/m
343.05 K | 0.0657 S/m
343.15 K | 0.0658 S/m
343.25 K | 0.0662 S/m
343.35 K | 0.0663 S/m
343.45 K | 0.0663 S/m
343.55 K | 0.0664 S/m
343.65 K | 0.0667 S/m
343.75 K | 0.0667 S/m
343.85 K | 0.067 S/m
343.95 K | 0.0674 S/m
344.05 K | 0.0675 S/m
344.15 K | 0.0674 S/m
344.25 K | 0.0677 S/m
344.35 K | 0.0678 S/m
344.45 K | 0.0679 S/m
344.55 K | 0.0679 S/m
344.65 K | 0.068 S/m
344.75 K | 0.0685 S/m
344.85 K | 0.0686 S/m
344.95 K | 0.0689 S/m
345.05 K | 0.0688 S/m
345.15 K | 0.069 S/m
345.25 K | 0.069 S/m and 0.0692 S/m
345.35 K | 0.0692 S/m
345.45 K | 0.0694 S/m
345.55 K | 0.0697 S/m
345.65 K | 0.0699 S/m
345.75 K | 0.0699 S/m
345.85 K | 0.07 S/m
345.95 K | 0.0701 S/m
346.05 K | 0.0702 S/m
346.15 K | 0.0704 S/m
346.25 K | 0.0707 S/m
346.35 K | 0.0709 S/m
346.45 K | 0.0708 S/m
346.55 K | 0.0709 S/m
346.65 K | 0.0712 S/m
346.75 K | 0.0712 S/m
346.85 K | 0.0713 S/m
